In US20210072244A1, “METHODS AND COMPOSITIONS FOR TREATING MELANOMA RESISTANT” (INSERM (INSTITUT NATIONAL DE LA SANTÉ ET DE LA RECHERCHE …, priority 2018, published 2021):
Read-outs that look alike come from different tables or passages of the source.

Legend:
[1] = tested on: BRAFi-resistant WM9 melanoma cell xenografts; assay: PLX4032-resistant WM9 (WM9R) xenograft growth in nude mice; type: in vivo; settings: FIG. 5F
Method: (§1) Animal experiments were performed in accordance with French law and approved by a local institutional ethical committee. The animals were maintained in a temperature controlled facility (22° C.) on a 12-h light/dark cycle and provided free access to food (standard laboratory chow diet from UAR, Epinay-S/Orge, France). Human WM9 melanoma cells, responsive or resistant to PLX4032 (2×10^6 cells), were subcutaneously inoculated into 8-week-old female, immune-deficient, athymic, nude FOXN1nu mice (Harlan Laboratory). When the tumors became palpable (0.1-0.2 cm3), the mice received an intraperitoneal injection of PLX4032 (25 mg/kg), FK866 (15 mg/kg) or both drugs dissolved in a mixture of Labrafil M1944 Cs, dimethylacetamide, and Tween 80 (90:9:1, v/v/v) three times per week. Control mice were injected with Labrafil alone. The growth tumor curves were determined after measuring the tumor volume using the equation V=(L×W2)/2. At the end of the experiment, the mice were euthanized by cervical dislocation, and the tumors were harvested for immunofluorescence.

[2] = Body weight of treated mice; type: in vivo; settings: FK866 15 mg/kg, not shown
Method: as §1

[3] = tested on: intracellular NAD+ in melanoma cells; assay: Intracellular NAD+ measurement (NAD/NADH Quantitation Kit); type: cell-based, human; settings: for intracellular NAD+ levels: 5 μM, 24 h (FIG. 1B)
Method: Human melanoma cell lines and short-term cultures derived from different patients with metastatic malignant melanoma cells were grown in DMEM supplemented with 7% FBS at 37° C. in a humidified atmosphere containing 5% CO2. PLX4032-sensitive and PLX4032-resistant melanoma cells were previously described (Bonet et al. 2012; Ohanna et al. 2014). Lipofectamine™ RNAiMAX and opti-MEM medium were purchased from Invitrogen (San Diego, Calif., USA). FK866 was obtained from Sigma, U0126 and GSK1120212 were purchased from Euromedex, and PD98059 and SCH77294 were obtained from Selleck Chemicals. The STAT5 inhibitor (CAS 285986-31-4) was purchased from Sigma. Intracellular NAD+ was measured using the NAD/NADH Quantitation Kit from Sigma according to the manufacturer's instructions.

[4] = tested on: BRAFV600E human melanoma cells; assay: Cell proliferation / viability (cell counting), BRAFV600E cells; type: cell-based
Method: (§2) The cells were seeded onto 12-well dishes (10×10^3 cells), and at 48 h post transfection or treatment, the cells were trypsinized from days 1 to 4, counted in triplicate using a hemocytometer. The experiments were performed at least three times.

[5] = tested on: WM9 melanoma cell xenograft; assay: WM9 melanoma xenograft growth in nude mice; type: in vivo; settings: 15 mg/kg every two days, athymic nude mice, versus vehicle, FIG. 4C
Method: as §1

[6] = tested on: BRAFi-resistant A375 (A375R) and WM9 (WM9R) melanoma cells; assay: Proliferation and PLX4032 sensitivity of BRAFi-resistant melanoma cells; type: cell-based, human
Method: as §2

[7] = tested on: A375R melanoma cell xenografts; assay: PLX4032-resistant A375 (A375R) xenograft growth in mice; type: in vivo
[8] = tested on: NAMPT; assay: NAMPT expression in melanoma cells (Western blot, QPCR); type: cell-based, human
Method: The proteins were visualized using the ECL system (Amersham).
The mRNA was isolated using TRIzol (Invitrogen) according to a standard procedure. QRT-PCR was performed using SYBR® Green I (Eurogentec, Seraing, Belgium) and Multiscribe Reverse Transcriptase (Applied Biosystems) and subsequently monitored using the ABI Prism 7900 Sequence Detection System (Applied Biosystems, Foster City, Calif.). The detection of the SB34 gene was used to normalize the results. Primer sequences for each cDNA were designed using either Primer Express Software (Applied Biosystems) or qPrimer depot (http://primerdepot.nci.nih.gov), and these sequences are available upon request.

[9] = tested on: ERK; assay: ERK phosphorylation (Western blot); type: cell-based, human; settings: for ERK phosphorylation levels: A375 melanoma cells, data not shown; for ERK phosphorylation: A375 and WM9 cells
Method: (§3) Western blotting was performed as previously described (Hilmi et al. 2008; Bertolotto et al. 2011). Briefly, cell lysates (30 μg) were separated using SDS-PAGE, transferred onto a PVDF membrane and subsequently exposed to the appropriate antibodies, anti-ERK2 (Santa Cruz Biotechnology, sc-1647 clone D-2), anti-phospho-ERK1/2 (Thr202/Tyr204) (Cell Signaling Technology Inc., #2370), anti-BRAF (Santa Cruz Biotechnology, sc-5284 clone F-7), anti-NAMPT (Sigma, #B5812), antiphospho-STAT5 (Tyr694) (Ozyme #9351), anti-STAT5 (Ozyme #9363), and anti-HSP90 (Santa Cruz biotechnology, #sc-13119). The proteins were visualized using the ECL system (Amersham). The western blots shown are representative of at least 3 independent experiments.

[10] = tested on: NAMPT; settings: public microarray data GSE51115, melanoma cell lines; cited from earlier work
[11] = tested on: STAT5; assay: STAT5 phosphorylation (Western blot); type: cell-based, human; settings: A375 and WM9 cells
Method: as §3

[12] = tested on: human NAMPT promoter; assay: NAMPT promoter luciferase reporter assay; type: cell-based
[13] = tested on: BRAFWT human melanoma cells; assay: Cell proliferation (cell counting), BRAFWT cells; type: cell-based; settings: data not shown
Method: as §2

[14] = tested on: UACC62 and WM9 human melanoma cell lines (BRAFV600E); assay: Global metabolic profiling by UPLC-MS/MS; type: cell-based; settings: FIG. 1A
Method: Briefly, samples were prepared using the automated MicroLab STAR® system (Hamilton Company). Recovery standards were added prior to the first step in the extraction process for QC purposes. Cell lysates were precipitated using methanol under vigorous shaking for 2 min, followed by centrifugation. The resulting extract was divided into five fractions: two samples for analysis using two separate reversephase (RP)/UPLC-MS/MS methods with positive ion mode electrospray ionization (ESI), one sample for analysis through RP/UPLC-MS/MS with negative ion mode ESI, one sample for analysis through HILIC/UPLC-MS/MS with negative ion mode ESI, and one sample was reserved for backup. The samples were briefly placed on a TurboVap® (Zymark) to remove the organic solvent. The sample extracts were stored overnight under nitrogen prior to preparation for analysis. Chromatography analyses were performed using Waters ACQUITY ultra-performance liquid chromatography (UPLC) and a Thermo Scientific Q-Exactive high resolution/accurate mass spectrometer interfaced with a heated electrospray ionization (HESI-II) source and Orbitrap mass analyzer operated at 35,000 mass resolution. The sample extract was dried and subsequently reconstituted in solvents compatible to each method (Miller et al. 2015). […]

[15] = A375 melanoma cells, data not shown

O=C(/C=C/c1cccnc1)NCCCCC1CCN(C(=O)c2ccccc2)CC1 [FK866]
tumor growth of BRAFi-resistant WM9 xenografts [1]: inhibited tumor growth | weight loss in the treated mice [2]: no weight loss | intracellular levels of NAD+ ([3]; A375 and WM9 melanoma cell lines, FIG. 4A): dramatically decreased | cell proliferation ([4]; A375 and WM9 melanoma cells, counted each day, FIG. 4B): impaired cell proliferation | WM9 melanoma cell xenograft growth [5]: impaired | PLX4032 sensitivity in BRAFi-resistant cells ([6]; A375R and WM9R, PLX4032 5 μM): restored PLX4032 sensitivity | melanoma cell death ([6]; BRAFi-resistant melanoma cells, both in vitro and in vivo): caused melanoma cell death | melanoma progression (A375R xenograft) ([7]; FK866 1.5 mg/kg and 15 mg/kg, FIG. 5E): dose-dependently reduced | NAD+ in treated tumors ([7]; FK866-treated tumors, data not shown): reduction | NAMPT expression ([8]; A375 and WM9 cells, NAMPT siRNA or FK866): did not affect

CC(=O)Nc1cccc(-n2c(=O)n(C3CC3)c(=O)c3c(Nc4ccc(I)cc4F)n(C)c(=O)c(C)c32)c1 [GSK1120212]
ERK phosphorylation levels [9]: inhibition of ERK phosphorylation levels | NAMPT expression [8, 15]: inhibition of NAMPT expression

COc1cccc(-c2cc(=O)c3ccccc3o2)c1N [PD98059]
ERK phosphorylation levels [9]: inhibition of ERK phosphorylation levels | NAMPT expression [8, 15]: inhibition of NAMPT expression

O=C(NOC[C@H](O)CO)c1ccc(F)c(F)c1Nc1ccc(I)cc1F [PD0325901]
NAMPT expression [10]: inhibition of NAMPT expression

CCCS(=O)(=O)Nc1ccc(F)c(C(=O)c2c[nH]c3ncc(-c4ccc(Cl)cc4)cc23)c1F [PLX4032]
tumor growth of BRAFi-resistant WM9 xenografts [1]: not affected | STAT5 phosphorylation [11]: inhibited | intracellular NAD+ levels ([3]; BRAFWT human melanoma cells): not in BRAFWT human melanoma cells | intracellular NAD+ levels ([3]; all BRAFV600E-mutated melanoma cell lines and short-term cultures): reduced intracellular NAD+ levels | ERK phosphorylation [9]: inhibited | viability ([4]; A375 and WM9 melanoma cells, 5 μM, 72 h (FIG. 5B)): inhibited the viability | cell proliferation ([4]; BRAFV600E human melanoma cells, data not shown): inhibited cell proliferation | NAMPT promoter activity ([12]; A375 and WM9 cells, FIGS. 3A-B): dose-dependent decrease | NAMPT promoter activity, significance over doses ([12]; A375 cells, 48 h, p<0.0034): all the PLX4032 doses lead to significant decrease | PLX4032 dose giving significant decrease in NAMPT promoter activity ([12]; WM9 cells, 48 h, p<0.014, in µM): > 0.005 | cell proliferation [13]: not in BRAFWT human melanoma cells | nicotinamide adenine dinucleotide (NAD+) levels [14]: reduced | NAMPT expression, protein level ([8]; 4 different BRAFV600E melanoma cells, data not shown): reduced NAMPT expression | NAMPT expression, mRNA level ([8]; BRAFV600E melanoma cells, QPCR, FIG. 2A): reduced NAMPT expression | NAMPT expression ([8]; BRAFWT human melanoma cells, data not shown): No inhibition

O=C(Nc1ccc2[nH]nc(-c3ccncc3)c2c1)[C@@H]1CCN(CC(=O)N2CCN(c3ccc(-c4ncccn4)cc3)CC2)C1 [SCH77294]
ERK phosphorylation levels [9]: inhibition of ERK phosphorylation levels | NAMPT expression [8, 15]: inhibition of NAMPT expression

O=C(N/N=C/c1coc2ccccc2c1=O)c1cccnc1 [STAT5 inhibitor]
STAT5 phosphorylation [11]: efficiently reduced | NAD+ levels ([3]; A375 and WM9 cells exposed to STAT5 inhibitor, FIG. 3F): decreased | ERK phosphorylation [9]: did not affect | BRAFV600E-stimulated NAMPT promoter activity ([12]; 501MEL cells transfected with BRAFV600E vector, 100 μM, 48 h (FIG. 3E)): decreased | basal NAMPT promoter activity ([12]; 501MEL cells, control vector, 100 μM, 48 h (FIG. 3E)): decreased | NAMPT expression ([8]; BRAF and STAT5 inhibitors, data not shown): decreased

N#CC(=C(/N)Sc1ccccc1N)/C(C#N)=C(\N)Sc1ccccc1N [U0126]
ERK phosphorylation levels [9]: inhibition of ERK phosphorylation levels | NAMPT expression [8, 15]: inhibition of NAMPT expression
